In US5618795A, “Dibekacin derivatives and arbekacin derivatives active against resistant bacteria, and the production thereof” (Zaidan Hojin Biseibutsu Kagaku Kenkyu Kai, priority 1992, dated 1997):
Values after ≈ are worked out from the molar mass of the structure shown. Like-named read-outs stand apart in the source and are kept apart here.

Assays:
[1] = P. J. L. Daniels et al.; cited from earlier work
Solubility in water = type: physicochemical
[2] = Acute toxicity, single intravenous administration to mice; type: in vivo; details: mouse, in vivo; single intravenous administration; mice (ICR-strain, 4 weeks old, female); observations for two weeks; read-out: LD50
Excerpt: 50% Lethal dosages (LD50, observations for two weeks) of the new compounds of this invention as estimated upon single intravenous administration to mice (ICR-strain, 4 weeks old, female) are as follows:
50% Lethal dosages (LD50, observations for two weeks) of the new compounds of general formula (XVI) according to the seventh aspect of this invention as estimated upon single intravenous administration to mice (ICR-strain, 4 weeks old, female) are as follows: […]

[3] = system: clinically isolated strains of MRSA; assay: Antibacterial MIC spectra against 50 clinically isolated strains of MRSA; type: cell-based, methicillin-resistant Staphylococcus aureus; details: Staphylococcus aureus; for MIC90: 90% of the 50 MRSA strains inhibited, read-out: MIC90; for MIC: range over 50 clinically isolated strains of MRSA, read-out: Antibacterial MIC spectra
Description: (§1) Minimum growth inhibitory concentrations (MIC) of each of 2"-amino-2"-deoxyarbekacin (Compound Ia), 2"-amino-5,2"-dideoxyarbekacin (Compound Ib), 2"-amino-2"-deoxydibekacin (Compound IIa) and 2"-amino-5,2"-dideoxydibekacin (Compound IIb) against various bacteria (20 strains) and against clinically isolated strains of MRSA (50 strains) were determined by standard serial dilution method on Muller-Hinton's agar medium (as estimated after cultivating at 27° C. for 18 hours), and the test results obtained are shown in TABLE 3 and TABLE 4, respectively.
Note:- MIC50 or MIC90 represents the concentration of tested
active compound at which 50% or 90% of the total numbers of the bacterial
strains tested were inhibited from their growth. DKB denotes dibekacin,
(§2) Minimum growth inhibitory concentrations (MIC) of each of 2"-amino-5,2"-dideoxy-5-epi-fluoroarbekacin (Compound XVIa) and 2"-amino-5,2"-dideoxy-5-epi-aminoarbekacin (Compound XVIb) against various bacteria (18 strains) and against clinically isolated strains of MRSA (50 strains) were determined by standard serial dilution method on Muller-Hinton's agar medium (as estimated after cultivation at 27° C. for 18 hours), and the test results obtained are shown in TABLE 5 and TABLE 6, respectively.

Serratia marcescens = assay: MIC by standard serial dilution method on Muller-Hinton's agar; type: cell-based; details: Table 3, 27° C., 18 hours, read-out: MIC
Description: as §1, §2

E. coli K-12 ML1629 = assay: as above; type: cell-based; details: Escherichia coli, K12ML1629; Table 3; 27° C., 18 hours; read-out: MIC
Description: as §1, §2

[4] = system: Klebsiella pneumoniae PCI602; assay: as above; type: cell-based; details: PCI602, 18 h
Description: as §1, §2

Escherichia coli NIHJ = assay: as above; type: cell-based; details: Table 3, 27° C., 18 hours
Description: as §1, §2

[5] = system: Shigella dysenteriae JSI1910; assay: as above; type: cell-based; details: JSI1910, 18 h
Description: as §1, §2

[6] = system: Pseudomonas aeruginosa A3; assay: as above; type: cell-based
Description: as §1, §2

Salmonella typhi T-63 = assay: as above; type: cell-based; details: Salmonella enterica, Table 3, 27° C., 18 hours
Description: as §1, §2

S. epidermidis 109 = assay: as above; type: cell-based
Description: as §1, §2

E. coli K-12 LA290 R55 = assay: as above; type: cell-based; details: Escherichia coli, K12LA290R55, 18 h
Description: as §1, §2

P. aeruginosa TI-13 = assay: as above; type: cell-based; details: Pseudomonas aeruginosa, TI13, 18 h
Description: as §1, §2

Bacillus subtilis PCI219 = assay: as above; type: cell-based; details: Table 3, 27° C., 18 hours
Description: as §1, §2

S. aureus Smith = assay: as above; type: cell-based; details: Staphylococcus aureus; Table 3; 27° C., 18 hours
Description: as §1, §2

[7] = system: Providencia rettgeri GN311; assay: as above; type: cell-based
Description: as §1, §2

[8] = system: Staphylococcus aureus FDA209P; assay: as above; type: cell-based; details: Table 3, 27° C., 18 hours
Description: as §1, §2

Proteus vulgaris OX19 = assay: as above; type: cell-based
Description: as §1, §2

E. coli JR66/W677 = assay: as above; type: cell-based; details: Escherichia coli, JR66/W677, 18 h
Description: as §1, §2

P. aeruginosa PST1 = assay: as above; type: cell-based; details: Pseudomonas aeruginosa, Table 3, 27° C., 18 hours
Description: as §1, §2

P. aeruginosa H9 = assay: as above; type: cell-based; details: Pseudomonas aeruginosa, H9; Table 3; 27° C., 18 hours; read-out: MIC
Description: as §1, §2

B. cereus ATCC10702 = assay: as above; type: cell-based; details: Bacillus cereus
Description: as §1

E. coli K-12 ML1410 = assay: as above; type: cell-based; details: Escherichia coli, K12ML1410; Table 3; 27° C., 18 hours
Description: as §1

CN[C@@H]1[C@@H](O)[C@@H](O[C@@H]2[C@H](N)[C@H](O[C@H]3OC(CN)=CC[C@H]3N)[C@@H](N)C[C@H]2N)OC[C@]1(C)O [5-epi-amino-5-deoxysisomicin]
antibacterial activity (in words) [1]: good antibacterial activity

CN[C@@H]1[C@@H](O)[C@@H](O[C@@H]2[C@H](F)[C@H](O[C@H]3OC(CN)=CC[C@H]3N)[C@@H](N)C[C@H]2N)OC[C@]1(C)O [5-epi-fluoro-5-deoxysisomicin]
antibacterial activity (in words) [1]: good antibacterial activity

NC[C@@H]1CC[C@@H](N)[C@@H](O[C@H]2[C@H](O)[C@@H](O[C@H]3O[C@H](CO)[C@@H](O)[C@H](N)[C@H]3N)[C@H](N)C[C@@H]2N)O1 [Compound IIa, 2"-Amino-2"-deoxydibekacin]
Solubility (Solubility in water): easily soluble in water | LD50 at 336 h [2]: > 100 mg/kg | MIC50 ([3]; 50% of the 50 MRSA strains inhibited, 27° C., 18 hours, read-out: MIC50): 6.25 µg/mL (≈ 13.9 µM) | MIC90 ([3]; 27° C., 18 hours): 25 µg/mL (≈ 55.5 µM) | MIC ([3]; 27° C., 18 hours): 0.2 to 50 µg/mL (≈ 0.444 to 111 µM) | MIC (Serratia marcescens): 12.5 µg/mL (≈ 27.7 µM) | MIC (E. coli K-12 ML1629): 3.13 µg/mL (≈ 6.95 µM) | MIC [4]: 3.13 µg/mL (≈ 6.95 µM) | MIC (Escherichia coli NIHJ): 0.78 µg/mL (≈ 1.73 µM) | MIC [5]: 3.13 µg/mL (≈ 6.95 µM) | MIC ([6]; A3, 18 h): 1.56 µg/mL (≈ 3.46 µM) | MIC (Salmonella typhi T-63): 1.56 µg/mL (≈ 3.46 µM) | MIC (S. epidermidis 109; Staphylococcus epidermidis, 109, 18 h): 1.56 µg/mL (≈ 3.46 µM) | MIC (E. coli K-12 LA290 R55): 1.56 µg/mL (≈ 3.46 µM) | MIC (P. aeruginosa TI-13): 3.13 µg/mL (≈ 6.95 µM) | MIC (Bacillus subtilis PCI219): ≤ 0.2 µg/mL | MIC (S. aureus Smith): 0.39 µg/mL (≈ 0.866 µM) | MIC ([7]; GN311, 18 h): 1.56 µg/mL (≈ 3.46 µM) | MIC [8]: 0.78 µg/mL (≈ 1.73 µM) | MIC (Proteus vulgaris OX19; OX19, 18 h): 1.56 µg/mL (≈ 3.46 µM) | MIC (E. coli JR66/W677): 3.13 µg/mL (≈ 6.95 µM) | MIC (P. aeruginosa PST1): 50 µg/mL (≈ 111 µM) | MIC (P. aeruginosa H9): 6.25 µg/mL (≈ 13.9 µM) | MIC (B. cereus ATCC10702; ATCC10702, 18 h): 3.13 µg/mL (≈ 6.95 µM) | MIC (E. coli K-12 ML1410): 1.56 µg/mL (≈ 3.46 µM)

NC[C@@H]1CC[C@@H](N)[C@@H](O[C@H]2C[C@@H](O[C@H]3O[C@H](CO)[C@@H](O)[C@H](N)[C@H]3N)[C@H](N)C[C@@H]2N)O1 [Compound IIb, 2"-Amino-5,2"-dideoxydibekacin]
Solubility (Solubility in water): easily soluble in water | LD50 at 336 h [2]: 50 to 100 mg/kg | MIC50 ([3]; MRSA, 18 h): 3.13 µg/mL (≈ 7.2 µM) | MIC90 ([3]; 27° C., 18 hours): 25 µg/mL (≈ 57.5 µM) | MIC ([3]; 27° C., 18 hours): 0.78 to 25 µg/mL (≈ 1.8 to 57.5 µM) | MIC (Serratia marcescens): 25 µg/mL (≈ 57.5 µM) | MIC (E. coli K-12 ML1629): 6.25 µg/mL (≈ 14.4 µM) | MIC [4]: 3.13 µg/mL (≈ 7.2 µM) | MIC (Escherichia coli NIHJ): 1.56 µg/mL (≈ 3.59 µM) | MIC [5]: 6.25 µg/mL (≈ 14.4 µM) | MIC ([6]; A3, Table 3, 27° C., 18 hours, read-out: MIC): 0.78 µg/mL (≈ 1.8 µM) | MIC (Salmonella typhi T-63): 3.13 µg/mL (≈ 7.2 µM) | MIC (S. epidermidis 109; Staphylococcus epidermidis, 109, Table 3, 27° C., 18 hours, read-out: MIC): 0.78 µg/mL (≈ 1.8 µM) | MIC (E. coli K-12 LA290 R55): 3.13 µg/mL (≈ 7.2 µM) | MIC (P. aeruginosa TI-13): 3.13 µg/mL (≈ 7.2 µM) | MIC (Bacillus subtilis PCI219): ≤ 0.2 µg/mL | MIC (S. aureus Smith): ≤ 0.2 µg/mL | MIC ([7]; GN311, Table 3, 27° C., 18 hours, read-out: MIC): 1.56 µg/mL (≈ 3.59 µM) | MIC [8]: 0.39 µg/mL (≈ 0.898 µM) | MIC (Proteus vulgaris OX19; OX19, Table 3, 27° C., 18 hours, read-out: MIC): 1.56 µg/mL (≈ 3.59 µM) | MIC (E. coli JR66/W677): 6.25 µg/mL (≈ 14.4 µM) | MIC (P. aeruginosa PST1): 100 µg/mL (≈ 230 µM) | MIC (P. aeruginosa H9): 12.5 µg/mL (≈ 28.8 µM) | MIC (B. cereus ATCC10702; ATCC10702, Table 3, 27° C., 18 hours, read-out: MIC): 1.56 µg/mL (≈ 3.59 µM) | MIC (E. coli K-12 ML1410): 3.13 µg/mL (≈ 7.2 µM)
